Assay results: ChEMBL document CHEMBL4396935, “l-like 3-deazaneplanocin analogues: Synthesis and antiviral properties” (Bioorg Med Chem Lett, 2019)
Converted amounts (≈) assume the structure as drawn. The source made the active and inactive calls. The calls are words filed in the database; no cut-off is given here.

Legend:
[1] = test system: Tacaribe virus; assay: Antiviral activity against Tacaribe virus infected in African green monkey Vero cells assessed as reduction in virus induced cytopathic effect; assay type: functional, organism-based; conditions: Mammarenavirus tacaribeense
[2] = test system: Pichinde virus; assay: Antiviral activity against Pichinde virus infected in African green monkey Vero cells assessed as reduction in virus induced cytopathic effect; assay type: functional, organism-based
[3] = test system: Ebolavirus; assay: Antiviral activity against Ebolavirus infected in African green monkey Vero cells by immunofluorescent assay; assay type: functional, organism-based; conditions: for EC50: Orthoebolavirus
[4] = test system: Junin virus; assay: Antiviral activity against Junin virus; assay type: functional, organism-based; conditions: Mammarenavirus juninense
[5] = test system: West Nile virus; assay: Antiviral activity against West Nile virus; assay type: functional, organism-based
[6] = test system: Japanese encephalitis virus; assay: Antiviral activity against Japanese encephalitis virus; assay type: functional, organism-based
[7] = test system: Lassa virus; assay: Antiviral activity against Lassa virus; assay type: functional, organism-based; conditions: Mammarenavirus lassaense
[8] = test system: Chikungunya virus; assay: Antiviral activity against Chikungunya virus; assay type: functional, organism-based
[9] = test system: Zika virus; assay: Antiviral activity against Zika virus; assay type: functional, organism-based
[10] = test system: Human adenovirus 5; assay: Antiviral activity against Human adenovirus 5; assay type: functional, organism-based
[11] = test system: Punta Toro virus; assay: Antiviral activity against Punta Toro virus; assay type: functional, organism-based
[12] = test system: Yellow fever virus; assay: Antiviral activity against Yellow fever virus; assay type: functional, organism-based
[13] = test system: Venezuelan equine encephalitis virus; assay: Antiviral activity against Venezuelan equine encephalitis virus; assay type: functional, organism-based
[14] = test system: H1N1 subtype; assay: Antiviral activity against Influenza A virus (H1N1); assay type: functional
[15] = test system: Human betaherpesvirus 5; assay: Antiviral activity against human cytomegalovirus; assay type: functional, organism-based
[16] = test system: Rift Valley fever virus; assay: Antiviral activity against Rift Valley fever virus; assay type: functional, organism-based
[17] = Cytotoxicity against African green monkey Vero cells; assay type: cell-based; conditions: chlorocebus sabaeus

SMILES	EC50 [1]	EC50 [2]	EC50 [3]	Activity [4]	Activity [5]	Activity [6]	Activity [7]	Activity [8]	Activity [9]	Activity [10]	Activity [11]	Activity [12]	Activity [13]	Activity [14]	Activity [1]	Activity [3]	Activity [2]	Activity [15]	Activity [16]	CC50 [17]
NC(=O)c1ncn([C@@H]2O[C@H](CO)[C@@H](O)[C@H]2O)n1 [RIBAVIRIN]	9.3 µg/mL (≈ 38.1 µM)	12 µg/mL (≈ 49.1 µM)																		
NC(=O)c1nc(F)cnc1O [FAVIPIRAVIR]			18.6 µg/mL (≈ 118 µM)																	
Nc1nccc2c1ncn2[C@H]1C=C(CF)[C@H](O)[C@@H]1O				inactive	inactive	inactive	inactive	inactive	inactive	inactive	inactive	inactive	inactive	inactive	inactive	inactive	inactive	inactive	inactive	
Nc1nccc2c1ncn2[C@H]1C=C(CO)[C@H](O)[C@@H]1O	1.3 µg/mL (≈ 4.96 µM)	0.9 µg/mL (≈ 3.43 µM)	8.7 µg/mL (≈ 33.2 µM)	inactive		inactive	inactive	inactive		inactive				inactive				inactive		12 to 85 µg/mL (≈ 45.8 to 324 µM)
Nc1ncc(Br)c2c1ncn2[C@H]1C=C(CO)[C@H](O)[C@@H]1O	> 100 µg/mL	> 100 µg/mL	4.2 µg/mL (≈ 12.3 µM)	inactive		inactive	inactive	inactive		inactive				inactive				inactive		83 to 100 µg/mL (≈ 243 to 293 µM)
